Results reported in the NIST ThermoML archive (doi:10.1016/j.jct.2016.03.008).

Experiment: mn = molality of the nth substance listed, in mol/kg
Conditions: 101 kPa, Liquid; for viscosity: Capillary tube (Ostwald / Ubbelohde) method; for mass density: Vibrating tube method

O=c1cc[nH]c(=O)[nH]1 [2,4(1H,3H)-pyrimidinedione] + O
Conditions	mass density, m1 = 0.005 [kg/m3]	mass density, m1 = 0.01 [kg/m3]	mass density, m1 = 0.015 [kg/m3]	mass density, m1 = 0.02 [kg/m3]	viscosity, m1 = 0.005 [mPa·s]	viscosity, m1 = 0.01 [mPa·s]	viscosity, m1 = 0.015 [mPa·s]	viscosity, m1 = 0.02 [mPa·s]
298.15 K	997.23	997.44	997.63	997.82	0.8929	0.8953	0.8977	0.9002
308.15 K	994.25	994.44	994.63	994.82	0.722	0.7232	0.7245	0.727
318.15 K	990.42	990.61	990.79	990.98	0.598	0.6004	0.6017	0.6041

C[N+](C)(C)CC(=O)O.[Cl-] [betaine hydrochloride] + O
Conditions	mass density, 298.15 K [kg/m3]	mass density, 308.15 K [kg/m3]	mass density, 318.15 K [kg/m3]	viscosity, 298.15 K [mPa·s]	viscosity, 308.15 K [mPa·s]	viscosity, 318.15 K [mPa·s]
m1 = 0.006	997.26	994.25	990.47	0.8929	0.7208	0.598
m1 = 0.0134	997.52	994.51	990.73	0.8965	0.7244	0.6005
m1 = 0.0267	997.98	994.97	991.19	0.9009	0.7288	0.6054
m1 = 0.0401	998.43	995.42	991.65	0.9064	0.7331	0.6104
m1 = 0.0536	998.87	995.87	992.1	0.9124	0.7381	0.6153
m1 = 0.0671	999.31	996.31	992.54	0.9181	0.7427	0.62
